The values below come from PubChem BioAssay (NCI).

Among the test systems are CAKI-1 renal; COLO 205 colon; HOP-62 NSCLC; K-562 leukemia; MCF7 breast; MDA-MB-231 breast; RPMI-8226 leukemia; RXF 393 renal; SK-MEL-5 melanoma; SK-OV-3 ovarian.
Experiment in all cases: NCI anticancer screen, dose series, 48 h

Several values for one entry are separate records, joined by “and”; a condition that tells them apart may be missing. Equal entries are not always repeated.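 Interpolation was linear, between the two tested concentrations surrounding the appropriate level; five concentrations were tested over 48 hours in 96-well plates. At the GI50, growth is halved. The concentration for full growth arrest is given as TGI.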 Bounds are passed on as bounds.

Consider `Cc1ccc(NC(=O)c2cc3ccccc3cc2O)c(C)c1.Cc1ccc(NC(=O)c2cc3ccccc3cc2[O-])c(C)c1.[Ni+2]`, for which the GI50 in the assay on CAKI-1 renal was 3.08 µM; with COLO 205 colon, 6.65 µM; with HOP-62 NSCLC it was 3.87 µM; with K-562 leukemia, 3.7 µM; with MCF7 breast, 3.45 µM; in the assay on MDA-MB-231 breast it was 2.33 µM. For the same compound, the GI50 in the assay on RPMI-8226 leukemia is 1.94 µM; in the assay with RXF 393 renal it was 1.9 µM; in the assay on SK-MEL-5 melanoma, 2.57 µM; with SK-OV-3 ovarian, 2.9 µM. Further, the TGI was 13.1 µM with CAKI-1 renal; 24.6 µM with COLO 205 colon; 17 µM in the assay with HOP-62 NSCLC; 12.9 µM with K-562 leukemia; 5.27 µM in the assay on MDA-MB-231 breast; 6.1 µM in the assay on RPMI-8226 leukemia. For the same compound, the TGI was 6.37 µM with RXF 393 renal, 10.2 µM with SK-MEL-5 melanoma and 11.6 µM in the assay on SK-OV-3 ovarian.
As for `CCN1CCN(c2ccc(Nc3ncc4ccc5ncn(C(C)C)c5c4n3)nc2)CC1`, the GI50 is 0.025 µM in the assay on CAKI-1 renal; 0.0852 µM in the assay on COLO 205 colon; 0.0923 µM in the assay with HOP-62 NSCLC; 0.132 µM in the assay with K-562 leukemia; less than 0.0109 µM in the assay on MCF7 breast; 0.111 µM in the assay with MDA-MB-231 breast. Besides, the GI50 is less than 0.0324 µM with RPMI-8226 leukemia, 0.0765 µM with RXF 393 renal, 0.153 µM with SK-MEL-5 melanoma and 0.271 µM with SK-OV-3 ovarian. The TGI in the assay on CAKI-1 renal is 0.52 µM; in the assay on COLO 205 colon it was 0.342 µM; with HOP-62 NSCLC, 3.22 µM; in the assay on MCF7 breast it was 0.848 µM; in the assay with MDA-MB-231 breast, 0.727 µM; in the assay with RPMI-8226 leukemia, 1.45 µM. Besides, the TGI in the assay with RXF 393 renal was 0.248 µM; with SK-MEL-5 melanoma, 0.405 µM; in the assay with SK-OV-3 ovarian, 0.847 µM.
Take `Nc1ccc(-c2ccc(-c3nc4cc(Cl)c(Cl)cc4[nH]3)cc2)cc1`: the GI50 in the assay on CAKI-1 renal is 0.353 µM; in the assay on COLO 205 colon, 0.0953 µM; with HOP-62 NSCLC, 11.7 µM; with K-562 leukemia, 4.32 µM; in the assay on MCF7 breast, 0.377 µM; with MDA-MB-231 breast, 3.34 µM. Further, the GI50 was 1.85 µM in the assay with RPMI-8226 leukemia, 5.71 µM in the assay on RXF 393 renal, 1.42 µM in the assay with SK-MEL-5 melanoma and more than 79.9 µM with SK-OV-3 ovarian. Further, the TGI with COLO 205 colon is more than 37.7 µM; with HOP-62 NSCLC, more than 50.5 µM; in the assay with K-562 leukemia, more than 100 µM; with MCF7 breast it was more than 100 µM; in the assay on MDA-MB-231 breast it was more than 49.6 µM; with RPMI-8226 leukemia it was 38.4 µM. The TGI in the assay on RXF 393 renal is 38.8 µM; in the assay on SK-MEL-5 melanoma it was more than 100 µM; in the assay with SK-OV-3 ovarian it was more than 100 µM.
For the compound `COc1cc(N2CCC(N3CCN(C)CC3)CC2)ccc1Nc1ncc(Cl)c(Nc2ccccc2S(=O)(=O)C(C)C)n1`, the GI50 with CAKI-1 renal was 0.65 µM; in the assay with COLO 205 colon, 0.114 µM; in the assay with HOP-62 NSCLC it was 0.414 µM; in the assay on K-562 leukemia it was 1.67 µM; in the assay with MCF7 breast, 0.114 µM; in the assay on MDA-MB-231 breast it was 0.705 µM. Also, the GI50 is 0.924 µM in the assay with RPMI-8226 leukemia, 0.6 µM with RXF 393 renal, 1.37 µM in the assay with SK-MEL-5 melanoma and 1.83 µM in the assay with SK-OV-3 ovarian. For the same compound, the TGI in the assay on CAKI-1 renal amounted to 6.51 µM; in the assay with COLO 205 colon, 0.469 µM; with HOP-62 NSCLC, 7.98 µM; with K-562 leukemia it was 5.41 µM; in the assay with MCF7 breast, 6.75 µM; in the assay with MDA-MB-231 breast, 2.43 µM. Moreover, the TGI with RPMI-8226 leukemia was 6.46 µM; in the assay with RXF 393 renal it was 1.86 µM; with SK-MEL-5 melanoma it was 2.67 µM; in the assay with SK-OV-3 ovarian, 4.02 µM.
Turning to `CNC(=O)CN1CCC(Oc2cc3c(Nc4cccc(Cl)c4F)ncnc3cc2OC)CC1`, the GI50 with CAKI-1 renal was 0.216 µM and 1.11 µM; with COLO 205 colon it was 13.9 µM and > 4.66 µM; with HOP-62 NSCLC it was 7.91 µM and 3.95 µM; in the assay with K-562 leukemia, 16.8 µM and > 10 µM; with MCF7 breast, 13.8 µM and > 5 µM; with MDA-MB-231 breast it was 5.9 µM and 4.18 µM. For the same compound, the GI50 is 32.2 µM and > 10 µM in the assay with RPMI-8226 leukemia; 7.35 µM and 2.37 µM with RXF 393 renal; 13.4 µM and 4.49 µM with SK-MEL-5 melanoma; 0.167 µM and 0.153 µM with SK-OV-3 ovarian. The TGI in the assay on CAKI-1 renal is 10.4 µM and > 10 µM; in the assay with COLO 205 colon, 29 µM and > 8.92 µM; in the assay on HOP-62 NSCLC, 70.4 µM and > 10 µM; in the assay with K-562 leukemia, 45.6 µM and > 10 µM; in the assay with MCF7 breast, more than 74.5 µM; with MDA-MB-231 breast, 20.7 µM and > 10 µM. Further, the TGI was more than 100 µM in the assay on RPMI-8226 leukemia; 27.3 µM and > 6.92 µM in the assay with RXF 393 renal; 26.5 µM and > 10 µM in the assay on SK-MEL-5 melanoma; 5.73 µM and 1.82 µM with SK-OV-3 ovarian.
Turning to `Cc1ccc(C2=NN(c3ccc(S(N)(=O)=O)cc3)C(c3cn(-c4ccccc4)nc3-c3ccccc3)C2)cc1` (configuration not stated), the GI50 in the assay on CAKI-1 renal was 6.17 µM; in the assay with COLO 205 colon, 15.1 µM; with HOP-62 NSCLC it was more than 100 µM; with K-562 leukemia it was 3.82 µM; with MCF7 breast, 3.19 µM; in the assay on MDA-MB-231 breast, 9.41 µM. The GI50 in the assay with RPMI-8226 leukemia is 6.35 µM; in the assay with RXF 393 renal, 3.81 µM; with SK-MEL-5 melanoma, 16.6 µM; in the assay with SK-OV-3 ovarian, more than 100 µM. The TGI in the assay on CAKI-1 renal is more than 100 µM; in the assay on COLO 205 colon, more than 100 µM; with HOP-62 NSCLC, more than 100 µM; in the assay with K-562 leukemia it was more than 100 µM; with MCF7 breast it was more than 100 µM; in the assay with MDA-MB-231 breast, 84.4 µM. The TGI in the assay on RPMI-8226 leukemia was more than 100 µM; in the assay with RXF 393 renal, 17.8 µM; with SK-MEL-5 melanoma, more than 100 µM; in the assay with SK-OV-3 ovarian it was more than 100 µM.
Regarding `O=S(=O)(CCCCl)SCCCCl`, the TGI is more than 100 µM with CAKI-1 renal; more than 69.2 µM in the assay on COLO 205 colon; more than 100 µM in the assay on HOP-62 NSCLC; 47.5 µM in the assay on K-562 leukemia; 52.5 µM in the assay on MCF7 breast; 69.4 µM in the assay on MDA-MB-231 breast. In addition, the TGI in the assay on RPMI-8226 leukemia was 64.1 µM; in the assay with RXF 393 renal, 57.8 µM; in the assay on SK-MEL-5 melanoma, more than 94.1 µM; in the assay with SK-OV-3 ovarian, more than 100 µM.
As for `Nc1nc(-c2cccs2)cs1`, the TGI in the assay on CAKI-1 renal, in the assay on COLO 205 colon, in the assay on HOP-62 NSCLC, in the assay with K-562 leukemia, with MCF7 breast and in the assay with MDA-MB-231 breast was more than 100 µM throughout. Also, the TGI in the assay with RPMI-8226 leukemia, with RXF 393 renal, in the assay with SK-MEL-5 melanoma and with SK-OV-3 ovarian was more than 100 µM each time.
